ChEMBL document CHEMBL1909046, “DrugMatrix in vitro pharmacology data”
Where a SMILES comes first, the peptide text is derived from it. Bridges are numbered along the chain shown (N, C = ends). [ ]: non-standard residue; d: D form. The star is where a group is joined. Threoninol(2S,3R) = C[C@@H](O)[C@H](CO)N*

Key:
[1] = biological target: Delta-type opioid receptor (Homo sapiens, UniProt P41143); assay type: cell membranes, HEK293, Membrane; conditions: hek293; note: in other assays of this panel Not Active means under 50% inhibition at 10 µM
Chain of Delta-type opioid receptor (P41143 whole entry): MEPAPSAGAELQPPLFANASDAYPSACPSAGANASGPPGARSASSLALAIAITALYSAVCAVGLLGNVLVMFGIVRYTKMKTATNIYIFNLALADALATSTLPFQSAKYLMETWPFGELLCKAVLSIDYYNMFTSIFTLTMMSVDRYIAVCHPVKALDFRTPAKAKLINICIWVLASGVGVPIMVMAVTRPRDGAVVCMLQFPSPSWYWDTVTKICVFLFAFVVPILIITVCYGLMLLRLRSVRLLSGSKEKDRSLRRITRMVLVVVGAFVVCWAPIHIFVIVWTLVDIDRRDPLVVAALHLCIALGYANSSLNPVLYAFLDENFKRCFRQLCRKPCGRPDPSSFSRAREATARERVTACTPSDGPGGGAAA

[2] = biological target: T1, Polyunsaturated fatty acid lipoxygenase ALOX15 (Oryctolagus cuniculus, UniProt P12530); assay: biochemical; assay type: tissue-based, Reticulocytes;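 note: inhibition of 15-lipoxygenase enzyme activity measured with linoleic acid as the substrate; in other assays of this panel Not Active means under 50% inhibition at 10 µM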
T1 sequence (P12530 whole entry): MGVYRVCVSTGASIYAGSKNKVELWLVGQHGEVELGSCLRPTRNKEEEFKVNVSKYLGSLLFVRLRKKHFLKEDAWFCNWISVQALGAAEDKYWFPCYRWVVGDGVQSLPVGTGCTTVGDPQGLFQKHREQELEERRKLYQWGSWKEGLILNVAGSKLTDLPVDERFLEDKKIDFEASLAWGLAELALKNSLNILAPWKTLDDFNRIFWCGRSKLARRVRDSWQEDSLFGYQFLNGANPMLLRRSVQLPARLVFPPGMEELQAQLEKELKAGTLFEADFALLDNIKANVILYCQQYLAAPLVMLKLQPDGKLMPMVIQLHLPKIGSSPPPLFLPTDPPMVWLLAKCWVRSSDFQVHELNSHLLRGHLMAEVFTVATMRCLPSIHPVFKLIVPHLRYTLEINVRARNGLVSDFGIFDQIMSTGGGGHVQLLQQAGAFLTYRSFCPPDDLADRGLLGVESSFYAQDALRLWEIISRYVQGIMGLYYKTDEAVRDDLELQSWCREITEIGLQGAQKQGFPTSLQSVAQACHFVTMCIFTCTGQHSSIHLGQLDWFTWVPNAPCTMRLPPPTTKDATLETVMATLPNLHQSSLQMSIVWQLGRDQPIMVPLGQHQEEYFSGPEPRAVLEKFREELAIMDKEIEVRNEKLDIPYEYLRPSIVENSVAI

[3] = biological target: Protein kinase C alpha type (Homo sapiens, UniProt P17252); assay type: cell-based; conditions: sf9;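 note: inhibition of PKCalpha kinase activity measured in an enzyme assay with histone as the phosphorylation substrate; in other assays of this panel Not Active means under 50% inhibition at 10 µM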
[4] = DRUGMATRIX: Sodium/nucleoside co-transporter radioligand binding (ligand: nitrobenzylthioinosine); assay type: cell membranes, Cavia porcellus, Dunkin-Hartley, Cerebral cortex, Membrane; conditions: Not Active = under 50% inhibition at 10 µM
[5] = biological target: T2, Alpha-2A adrenergic receptor (Homo sapiens, UniProt P08913); assay type: cell membranes, Sf9, Membrane; note: in other assays of this panel Not Active means under 50% inhibition at 10 µM
T2 sequence (P08913 whole entry): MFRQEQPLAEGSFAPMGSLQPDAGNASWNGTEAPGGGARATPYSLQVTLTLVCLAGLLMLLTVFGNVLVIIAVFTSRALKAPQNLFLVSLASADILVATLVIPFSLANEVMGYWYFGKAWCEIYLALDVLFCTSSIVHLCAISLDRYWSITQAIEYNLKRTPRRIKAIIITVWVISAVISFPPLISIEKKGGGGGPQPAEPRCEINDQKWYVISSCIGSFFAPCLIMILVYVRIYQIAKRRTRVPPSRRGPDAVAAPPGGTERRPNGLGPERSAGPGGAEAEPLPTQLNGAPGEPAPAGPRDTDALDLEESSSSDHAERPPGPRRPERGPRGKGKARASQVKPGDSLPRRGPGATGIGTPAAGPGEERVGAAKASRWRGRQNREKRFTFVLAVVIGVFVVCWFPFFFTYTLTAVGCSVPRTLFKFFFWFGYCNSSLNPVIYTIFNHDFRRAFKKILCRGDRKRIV

[6] = biological target: 5-hydroxytryptamine receptor 1B (Rattus norvegicus, UniProt P28564); assay type: cell membranes, Wistar, Cerebral cortex, Membrane; note: in other assays of this panel Not Active means under 50% inhibition at 10 µM
Chain of 5-hydroxytryptamine receptor 1B (P28564 whole entry): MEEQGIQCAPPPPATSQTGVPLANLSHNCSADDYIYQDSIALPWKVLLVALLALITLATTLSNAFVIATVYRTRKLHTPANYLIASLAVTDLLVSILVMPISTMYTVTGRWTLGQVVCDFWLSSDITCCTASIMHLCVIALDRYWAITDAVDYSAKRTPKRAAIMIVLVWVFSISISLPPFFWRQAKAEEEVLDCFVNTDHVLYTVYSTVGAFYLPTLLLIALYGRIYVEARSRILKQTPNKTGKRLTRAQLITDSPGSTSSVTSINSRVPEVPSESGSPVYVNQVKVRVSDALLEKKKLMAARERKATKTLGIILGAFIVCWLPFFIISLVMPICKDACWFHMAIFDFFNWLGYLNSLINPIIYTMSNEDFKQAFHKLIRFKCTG

| Structure (SMILES) | IC50 [1] | IC50 ([2]; reticulocytes) | IC50 [3] | IC50 [4] | Ki [4] | IC50 ([5]; sf9) | IC50 [6] | IC50 ([5]; read-out: IC50) | Ki ([5]; read-out: Ki) | IC50 ([2]; read-out: IC50) | Ki [1] | Ki ([2]; reticulocytes) | Ki [3] | Ki ([5]; sf9) | Ki [6] |
| --- | --- | --- | --- | --- | --- | --- | --- | --- | --- | --- | --- | --- | --- | --- | --- |
| COc1ccccc1C(=O)N1CCC(Cc2ccccc2)CC1 | Not Active | Not Active | Not Active | Not Active | Not Active | Not Active | Not Active | – | – | – | – | – | – | – | – |
| Cc1ccccc1C(=O)N1CCC(Cc2ccccc2)CC1 | Not Active | Not Active | Not Active | Not Active | Not Active | Not Active | Not Active | – | – | – | – | – | – | – | – |
| O=C1CC[C@H](N2C(=O)c3ccccc3C2=O)C(=O)N1 | Not Active | Not Active | Not Active | Not Active | Not Active | Not Active | Not Active | – | – | – | – | – | – | – | – |
| N=C(Nc1ccccc1)Nc1ccccc1 | Not Active | Not Active | Not Active | Not Active | Not Active | Not Active | Not Active | – | – | – | – | – | – | – | – |
| C[C@@H](O)[C@H](CO)NC(=O)[C@@H]1CSSC[C@H](NC(=O)[C@H](N)Cc2ccccc2)C(=O)N[C@@H](Cc2ccccc2)C(=O)N[C@H](Cc2c[nH]c3ccccc23)C(=O)N[C@@H](CCCCN)C(=O)N[C@@H]([C@@H](C)O)C(=O)N1 (H-[dF]CF[dW]KTC-{Threoninol(2S,3R)}; disulfide 2-7) | Not Active | Not Active | Not Active | Not Active | Not Active | Not Active | Not Active | – | – | – | – | – | – | – | – |
| S=C=Nc1cccc2ccccc12 [1-NAPHTHYLISOTHIOCYANATE] | Not Active | Not Active | Not Active | Not Active | Not Active | – | Not Active | 6.27 µM | 2.35 µM | – | – | – | – | – | – |
| C[C@](O)(CS(=O)(=O)c1ccc(F)cc1)C(=O)Nc1ccc(C#N)c(C(F)(F)F)c1 [(R)-BICALUTAMIDE] | Not Active | Not Active | Not Active | Not Active | Not Active | Not Active | Not Active | – | – | – | – | – | – | – | – |
| CCCC(=O)Nc1ccc(OCC(O)CNC(C)C)c(C(C)=O)c1 (centres undefined) [ACEBUTOLOL] | Not Active | Not Active | Not Active | Not Active | Not Active | Not Active | Not Active | – | – | – | – | – | – | – | – |
| CC(=O)Nc1ccc(O)cc1 [ACETAMINOPHEN] | Not Active | – | Not Active | Not Active | Not Active | Not Active | Not Active | – | – | 28.4 µM | – | – | – | – | – |
| COc1cc2c(c3oc(=O)c4c(c13)CCC4=O)[C@@H]1C=CO[C@@H]1O2 [AFLATOXIN] | Not Active | Not Active | Not Active | Not Active | Not Active | Not Active | Not Active | – | – | – | Not Active | Not Active | Not Active | Not Active | Not Active |
| N=C(N)NC(=O)c1nc(Cl)c(N)nc1N [AMILORIDE] | Not Active | Not Active | Not Active | Not Active | Not Active | Not Active | Not Active | – | – | – | – | – | – | – | – |
| Cc1cc(=O)n(-c2ccccc2)n1C [ANTIPYRINE] | Not Active | Not Active | Not Active | Not Active | Not Active | Not Active | Not Active | – | – | – | – | – | – | – | – |
| CN1C(=O)COc2c(C(=O)NC3CN4CCC3CC4)cc(Cl)cc21 (centres undefined) [AZASETRON] | Not Active | Not Active | Not Active | Not Active | Not Active | Not Active | Not Active | – | – | – | – | – | – | – | – |
| C[C@H]1C[C@H]2[C@@H]3CCC4=CC(=O)C=C[C@]4(C)[C@@]3(Cl)[C@@H](O)C[C@]2(C)[C@@]1(O)C(=O)CO [BECLOMETHASONE] | Not Active | Not Active | Not Active | Not Active | Not Active | Not Active | Not Active | – | – | – | – | – | – | – | – |
| CCOC(=O)[C@H](CCc1ccccc1)N[C@H]1CCc2ccccc2N(CC(=O)O)C1=O [BENAZEPRIL] | Not Active | Not Active | Not Active | Not Active | Not Active | Not Active | Not Active | – | – | – | – | – | – | – | – |
| Nc1c(CC(=O)O)cccc1C(=O)c1ccc(Br)cc1 [BROMFENAC] | Not Active | Not Active | Not Active | Not Active | Not Active | Not Active | Not Active | – | – | – | – | – | – | – | – |
| CCCCN1CCCCC1C(=O)Nc1c(C)cccc1C.Cl (centres undefined) [BUPIVACAINE HYDROCHLORIDE] | Not Active | Not Active | Not Active | Not Active | Not Active | Not Active | Not Active | – | – | – | – | – | – | – | – |
| O=C1CC2(CCCC2)CC(=O)N1CCCCN1CCN(c2ncccn2)CC1 [BUSPIRONE] | Not Active | Not Active | Not Active | Not Active | Not Active | Not Active | Not Active | – | – | – | – | – | – | – | – |
| C[C@@]12C(=O)OC(=O)[C@]1(C)[C@H]1CC[C@@H]2O1 [CANTHARIDIN] | Not Active | Not Active | Not Active | Not Active | Not Active | Not Active | Not Active | – | – | – | – | – | – | – | – |
| O=NN(CCCl)C(=O)NCCCl [CARMUSTINE] | Not Active | Not Active | Not Active | Not Active | Not Active | Not Active | Not Active | – | – | – | – | – | – | – | – |
| CC1=C(C(=O)O)N2C(=O)[C@@H](NC(=O)[C@H](N)c3ccccc3)[C@H]2SC1 [CEPHALEXIN ANHYDROUS] | Not Active | Not Active | Not Active | Not Active | Not Active | Not Active | Not Active | – | – | – | – | – | – | – | – |
| O=C(N[C@H](CO)[C@H](O)c1ccc([N+](=O)[O-])cc1)C(Cl)Cl [CHLORAMPHENICOL] | Not Active | Not Active | Not Active | Not Active | Not Active | Not Active | Not Active | – | – | – | – | – | – | – | – |
| ClC(Cl)Cl [CHLOROFORM] | Not Active | Not Active | Not Active | Not Active | Not Active | Not Active | Not Active | – | – | – | – | – | – | – | – |
| C=C1CC[C@H](O)C/C1=C/C=C1\CCC[C@]2(C)[C@@H]([C@H](C)CCCC(C)C)CC[C@@H]12 [CHOLECALCIFEROL] | Not Active | Not Active | Not Active | Not Active | Not Active | Not Active | Not Active | – | – | – | – | – | – | – | – |
| C[N+](C)(C)CCO.[Cl-] [CHOLINE CHLORIDE] | Not Active | Not Active | Not Active | Not Active | Not Active | Not Active | Not Active | – | – | – | – | – | – | – | – |
| CCOC(=O)C(C)(C)Oc1ccc(Cl)cc1 [CLOFIBRATE] | Not Active | Not Active | Not Active | Not Active | Not Active | Not Active | Not Active | – | – | – | – | – | – | – | – |
| CC(=O)OCC(=O)[C@@]1(O)CC[C@H]2[C@@H]3CCC4=CC(=O)CC[C@]4(C)[C@H]3C(=O)C[C@@]21C [CORTISONE ACETATE] | Not Active | Not Active | Not Active | Not Active | Not Active | Not Active | Not Active | – | – | – | – | – | – | – | – |
| O=c1ccc2ccccc2o1 [COUMARIN] | Not Active | Not Active | Not Active | Not Active | Not Active | Not Active | Not Active | – | – | – | – | – | – | – | – |
| C[C@@H]1C[C@@H]([C@H](O)CC2CC(=O)NC(=O)C2)C(=O)[C@@H](C)C1 [CYCLOHEXIMIDE] | Not Active | Not Active | Not Active | Not Active | Not Active | Not Active | Not Active | – | – | – | – | – | – | – | – |
